The term EC50 denotes the concentration needed to bring the measured effect to its halfway point. A low value points to higher potency in that assay.

The structures appear in SMILES notation.

One test deals with α4β7 integrin (Homo sapiens (Human), UniProt P13612+P26010). Nature of the test: α4β7 Integrin Cell Capture Assay. The format is cell-based. The following applies: RPMI8866 cells captured on MadCAM-1 extracellular domain-coated plate.
α4β7 integrin, sequence (P13612 34-1032): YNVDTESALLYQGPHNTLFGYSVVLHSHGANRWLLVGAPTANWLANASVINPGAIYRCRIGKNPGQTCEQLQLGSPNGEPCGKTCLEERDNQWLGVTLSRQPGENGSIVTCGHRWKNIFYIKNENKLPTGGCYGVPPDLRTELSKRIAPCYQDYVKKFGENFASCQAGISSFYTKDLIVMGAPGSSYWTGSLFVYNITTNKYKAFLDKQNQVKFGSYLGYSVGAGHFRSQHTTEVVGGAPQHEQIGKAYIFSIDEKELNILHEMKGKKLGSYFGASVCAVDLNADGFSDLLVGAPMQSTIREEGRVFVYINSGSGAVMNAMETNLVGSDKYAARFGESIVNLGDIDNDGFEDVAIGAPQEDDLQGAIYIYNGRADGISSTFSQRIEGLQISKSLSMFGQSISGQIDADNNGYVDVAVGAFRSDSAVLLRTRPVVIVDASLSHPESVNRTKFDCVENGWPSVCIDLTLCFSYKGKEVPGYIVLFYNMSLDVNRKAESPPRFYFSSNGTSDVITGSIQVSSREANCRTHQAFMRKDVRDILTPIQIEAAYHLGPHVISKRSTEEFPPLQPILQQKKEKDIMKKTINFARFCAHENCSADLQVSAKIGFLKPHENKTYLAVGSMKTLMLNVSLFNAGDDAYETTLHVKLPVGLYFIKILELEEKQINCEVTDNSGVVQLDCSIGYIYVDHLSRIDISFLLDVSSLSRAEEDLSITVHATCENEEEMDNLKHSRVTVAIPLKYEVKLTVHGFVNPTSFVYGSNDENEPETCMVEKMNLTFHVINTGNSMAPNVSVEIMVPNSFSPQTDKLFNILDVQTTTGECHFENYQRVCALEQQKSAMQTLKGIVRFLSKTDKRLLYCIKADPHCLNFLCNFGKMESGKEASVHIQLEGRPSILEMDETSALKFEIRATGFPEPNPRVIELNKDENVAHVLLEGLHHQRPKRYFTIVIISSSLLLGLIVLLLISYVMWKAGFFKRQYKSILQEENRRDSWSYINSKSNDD
α4β7 integrin, sequence (P26010 20-798): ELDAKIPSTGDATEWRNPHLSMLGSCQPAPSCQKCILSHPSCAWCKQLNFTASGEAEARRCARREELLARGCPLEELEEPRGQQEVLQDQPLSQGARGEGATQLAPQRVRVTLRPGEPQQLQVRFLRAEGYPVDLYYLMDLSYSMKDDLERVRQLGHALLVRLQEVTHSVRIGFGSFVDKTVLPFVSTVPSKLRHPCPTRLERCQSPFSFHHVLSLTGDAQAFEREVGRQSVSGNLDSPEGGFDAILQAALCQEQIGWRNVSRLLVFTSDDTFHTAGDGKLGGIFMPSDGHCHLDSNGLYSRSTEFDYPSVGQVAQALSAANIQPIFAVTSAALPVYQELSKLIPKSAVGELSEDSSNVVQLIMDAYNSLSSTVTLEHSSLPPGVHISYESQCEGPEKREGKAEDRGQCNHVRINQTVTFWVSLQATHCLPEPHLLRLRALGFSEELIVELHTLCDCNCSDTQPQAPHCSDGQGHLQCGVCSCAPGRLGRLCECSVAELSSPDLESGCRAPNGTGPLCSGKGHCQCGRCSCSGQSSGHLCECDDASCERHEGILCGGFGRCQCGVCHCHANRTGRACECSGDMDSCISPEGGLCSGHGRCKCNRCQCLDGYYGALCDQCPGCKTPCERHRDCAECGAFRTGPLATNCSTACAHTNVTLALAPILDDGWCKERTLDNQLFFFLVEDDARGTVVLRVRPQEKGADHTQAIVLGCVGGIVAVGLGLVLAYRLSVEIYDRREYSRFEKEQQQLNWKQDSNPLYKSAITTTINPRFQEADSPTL
The compound `Cc1cc(N2CCOC[C@@H]2C(F)(F)F)cc(F)c1C(=O)N[C@@H](Cc1cc(F)c(-c2cc3cnccc3n(C)c2=O)c2ncccc12)C(=O)O` [Example 464] yielded an EC50 of 0.13 nM.
Take `CCn1c(=O)n(-c2ccc(C[C@H](NC(=O)c3c(C)cc(N4CCOC[C@@H]4C(F)(F)F)cc3F)C(=O)O)c3cccnc23)c(=O)c2ccncc21` [Example 417]: the EC50 was determined as 0.117 nM.
`Cc1nc2c(s1)c(=O)n(-c1ccc(C[C@H](NC(=O)c3c(C)cc(N4CCOC[C@@H]4C(F)(F)F)cc3F)C(=O)O)c3cccnc13)c(=O)n2C` [Example 410] displayed an EC50 of 0.054 nM.
Consider `COc1cnc2c(=O)n(-c3ccc(C[C@H](NC(=O)c4c(C)cc(N5CCOC[C@@H]5C(F)(F)F)cc4F)C(=O)O)c4cccnc34)c(=O)n(C)c2c1` [Example 415], for which the EC50 is 0.091 nM.
As for `Cc1cc(N2CCOC[C@@H]2C(F)(F)F)cc(F)c1C(=O)N[C@@H](Cc1ccc(-c2cc(C(F)(F)F)c(C)n(C)c2=O)c2ncccc12)C(=O)O` [Example 448], the EC50 was found to be 0.307 nM.
`CC[C@@H](Nc1cc(F)c(C(=O)N[C@@H](Cc2ccc(-c3cc(OC)cn(C)c3=O)c3ncccc23)C(=O)O)c(F)c1)C(F)(F)F` [Example 481] gave an EC50 of 1.48 nM. Against the preceding compound, the EC50 is about 4.8-fold higher.
`Cn1c(=O)c(-c2ccc(C[C@H](NC(=O)c3c(F)cc(N4CCOC[C@@H]4C(F)(F)F)cc3F)C(=O)O)c3cccnc23)nc2ccccc21` [Example 484]: the EC50 stood at 0.143 nM.
Same read-out and setting: under `Cc1cc(N2CCOC[C@@H]2C(F)(F)F)cc(F)c1C(=O)N[C@@H](Cc1ccc(-c2cc3cnccc3n(C)c2=O)c2ncccc12)C(=O)O` [Example 469] stands 0.103 nM.
Compound `Cc1cc(N2CCOC[C@@H]2C(F)(F)F)cc(F)c1C(=O)N[C@@H](Cc1ccc(-c2nc(C)c(C)n(C)c2=O)c2ncccc12)C(=O)O` [Example 477] showed an EC50 of 0.115 nM.
`Cn1c(=O)n(-c2ccc(C[C@H](NC(=O)c3c(F)cc(N4CCOC[C@@H]4C(F)(F)F)cc3F)C(=O)O)c3cccnc23)c(=O)c2ccncc21` [Example 474] yielded an EC50 of 0.112 nM.

The test is the same for the next values; noted with them: Table 1; capture of α4β7 expressing RPM18866 cells on MadCAM-1 extracellular domain-coated plate.
On to `CC[C@@H](N1CCCc2c1cc(F)c(C(=O)N[C@@H](Cc1ccc(-c3c(C(F)(F)F)cc(C)n(C)c3=O)c3ncccc13)C(=O)O)c2F)C(F)(F)F` [Example 146, (S)-2-(5,7-difluoro-1-((R)-1,1,1-trifluorobutan-2-yl)-1,2,3,4-tetrahydroquinoline-6-carboxamido)-3-(8-(1,6-dimethyl-2-oxo-4-(trifluoromethyl)-1,2-dihydropyridin-3-yl)quinolin-5-yl)propanoic acid], for which a half-maximal effect (EC50) was put at 0.6 nM. This counts as sub-nanomolar.
Still for that read-out and setting: under `CCOCc1cc(OC)c(-c2ccc(C[C@H](NC(=O)c3c(F)cccc3F)C(=O)O)c3cc(C(F)(F)F)cnc23)c(OC)c1` [Example 37, (S)-2-(2,6-difluorobenzamido)-3-(8-(4-(ethoxymethyl)-2,6-dimethoxyphenyl)-3-(trifluoromethyl)quinolin-5-yl)propanoic acid] stands 69.6 nM.
On the same count and under the same terms, for `N#Cc1cc(Cl)c(-c2ccc(C[C@H](NC(=O)c3c(Cl)cccc3Cl)C(=O)O)c3cccnc23)c(Cl)c1` [Example 4, (S)-3-(8-(2,6-dichloro-4-cyanophenyl)quinolin-5-yl)-2-(2,6-dichlorobenzamido)propanoic acid] the value was 6.7 nM; for `N#Cc1ccc(-c2ccc(C[C@H](NC(=O)c3c(F)cc(N4CCOCC4C(F)(F)F)cc3F)C(=O)O)c3cccnc23)c(Cl)c1` (stereo partly drawn) [Example 81], 6 nM; for `CCOCc1cc(OC)c(-c2c(F)cc(C[C@H](NC(=O)c3c(F)cccc3F)C(=O)O)c3cccnc23)c(OC)c1` [Example 40, (S)-2-(2,6-difluorobenzamido)-3-(8-(4-(ethoxymethyl)-2,6-dimethoxyphenyl)-7-fluoroquinolin-5-yl)propanoic acid], 8.6 nM.
On to `COc1cc(F)cc(C(F)(F)F)c1-c1ccc(C[C@H](NC(=O)c2c(F)cccc2F)C(=O)O)c2cccnc12` [Example 6, (2S)-2-(2,6-difluorobenzamido)-3-(8-(4-fluoro-2-methoxy-6-(trifluoromethyl)phenyl)quinolin-5-yl)propanoic acid], for which the EC50 worked out at 4.5 nM.
Turning to `CC[C@@H](Nc1cc(F)c(C(=O)N[C@@H](Cc2ccc(-c3c(C)c4cc(F)ccc4n(C)c3=O)c3ncccc23)C(=O)O)c(F)c1)C(F)(F)F` (atropisomer, axis not shown) [Example 109, (S)-2-(2,6-difluoro-4-(((R)-1,1,1-trifluorobutan-2-yl)amino)benzamido)-3-(6-fluoro-1,4-dimethyl-2-oxo-1,2-dihydro-[3,8′-biquinolin]-5′-yl)propanoic acid], the 50% effective concentration (EC50) stood at 0.3 nM.

Still in this test, the particulars now being: Table 2; capture of α4β7 expressing RPM18866 cells on MadCAM-1 extracellular domain-coated plate.
Compound `CCOCc1cc(OC)c(-c2ccc(C[C@H](NC(=O)c3c(F)cc(NC(C)=O)cc3F)C(=O)O)c3cccnc23)c(OC)c1` [Example 329] came in with an EC50 of 20.1 nM.
For the compound `Cc1cc(C(F)(F)F)c(-c2ccc(C[C@H](NC(=O)c3c(F)cc(N4CCOCC4)cc3F)C(=O)O)c3cccnc23)c(=O)n1C` [Example 217], the EC50 came out at 2 nM.
The same measure, in the same setting: under `CC[C@@H](Nc1cc(F)c(C(=O)N[C@@H](Cc2ccc(-c3nccc(C)c3C)c3ncccc23)C(=O)O)c(F)c1)C(F)(F)F` [Example 307] stands 11.4 nM; under `Cc1cc(C(F)(F)F)c(-c2ccc(C[C@H](NC(=O)c3c(F)cc(N4CCOC[C@@H]4C(F)(F)F)cc3F)C(=O)O)c3cc(N(C)C)cnc23)c(=O)n1C` [Example 281], 5.5 nM; under `N#Cc1ccc(-c2ccc(C[C@H](NC(=O)c3c(Cl)cc4[nH]c(C5CC5)cc4c3Cl)C(=O)O)c3cccnc23)c(Cl)c1` [Example 225], 53.7 nM.
In turn, `N#Cc1ccc(-c2ccc(C[C@H](NC(=O)c3c(Cl)cc4[nH]ccc4c3Cl)C(=O)O)c3cccnc23)c(Cl)c1` [Example 246] yielded a concentration giving a half-maximal response (EC50) of 34.3 nM.
Take `C[C@@H](NC(=O)c1cc(F)c(C(=O)N[C@@H](Cc2ccc(-c3ccc(C#N)cc3Cl)c3ncccc23)C(=O)O)c(F)c1)C(F)(F)F` [Example 154]: the EC50 turned out to be 44.6 nM.
Still for that read-out and setting: for `CC[C@@H](Nc1cc(F)c(C(=O)N[C@@H](Cc2ccc(-c3nc(C)cn(C)c3=O)c3ncccc23)C(=O)O)c(F)c1)C(F)(F)F` [Example 209] the value was 1.9 nM; for `C[C@@H](Nc1cc(F)c(C(=O)N[C@@H](Cc2ccc(-c3nc(N)ccc3C(F)(F)F)c3ncccc23)C(=O)O)c(F)c1)C(F)(F)F` [Example 238], 2.8 nM; for `N#Cc1ccc(-c2ccc(C[C@H](NC(=O)c3c(F)cc(N[C@@H]4CCCCC4(F)F)cc3F)C(=O)O)c3cccnc23)c(Cl)c1` [Example 170], 93.7 nM.
Still for that read-out and setting: under `Cc1cc(C(F)(F)F)c(-c2ccc(C[C@H](NC(=O)c3c(F)cc(N4CC[C@@H]4C(F)(F)F)cc3F)C(=O)O)c3cccnc23)c(=O)n1C` [Example 244] stands 2.9 nM; under `CC[C@@H](Nc1cc(F)c(C(=O)N[C@@H](Cc2ccc(-c3c(C)cc(C)n(C)c3=O)c3ncccc23)C(=O)O)c(F)c1)C(F)(F)F` [Example 345], 0.8 nM; under `Cc1c(-c2ccc(C[C@H](NC(=O)c3c(F)cc(N[C@H](C)C(F)(F)F)cc3F)C(=O)O)c3cccnc23)c(=O)n(C)c(=O)n1C` [Example 340], 0.6 nM.
Compound `CC[C@@H](Nc1cc(F)c(C(=O)N[C@@H](Cc2ccc(-c3nc(C)ccc3C(F)(F)F)c3ncccc23)C(=O)O)c(F)c1)C(F)(F)F` [Example 289] displayed an EC50 of 6.5 nM. This EC50 lies about 11-fold higher than the previous one.
Turning to `Cn1c(=O)c(-c2ccc(C[C@H](NC(=O)c3c(F)cc(NS(=O)(=O)C(F)F)cc3F)C(=O)O)c3cccnc23)cc2ccccc21` [Example 153], the EC50 was 0.2 nM.
The compound `N#Cc1ccc(-c2ccc(C[C@H](NC(=O)c3c(F)cc(C(=O)NC4CC4)cc3F)C(=O)O)c3cccnc23)c(Cl)c1` [Example 197] had an EC50 of 63.4 nM.
The same measure, in the same setting: for `O=C(N[C@@H](Cc1ccc(-c2c(Cl)cc(F)cc2OC(F)F)c2ncccc12)C(=O)O)c1c(F)cccc1F` [Example 149] the value was 50.3 nM; for `CC[C@@H](Nc1cc(F)c(C(=O)N[C@@H](Cc2ccc(-c3c(C)c4cc(F)ccc4n(C)c3=O)c3ncccc23)C(=O)O)c(F)c1)C(F)(F)F` (atropisomer, axis not shown) [Example 185], 1 nM.
The same measure, in the same setting: under `CC[C@@H](Nc1cc(F)c(C(=O)N[C@@H](Cc2ccc(-c3c(C)c(Cl)cn(C)c3=O)c3ncccc23)C(=O)O)c(F)c1)C(F)(F)F` [Example 200] stands 1.5 nM.
Turning to `Cc1cc(C)n(C)c(=O)c1-c1ccc(C[C@H](NC(=O)c2c(F)cc(N[C@H](C3CC3)C(F)(F)F)cc2F)C(=O)O)c2cccnc12` [Example 342], the EC50 worked out at 0.7 nM.
`O=C(N[C@H](C(=O)O)[C@@H](O)c1ccc(-c2c(Cl)cc(F)cc2Cl)c2ncccc12)c1c(F)cccc1F` [Example 279] returned an EC50 of 82.4 nM.
The compound `Cc1c(Cl)cc(-c2ccc(C[C@H](NC(=O)c3c(F)cc(N4CCOC[C@@H]4C(F)(F)F)cc3F)C(=O)O)c3cccnc23)c(=O)n1C` [Example 161] yielded an EC50 of 0.3 nM.
`CC[C@@H](Nc1cc(F)c(C(=O)N[C@@H](Cc2ccc(-c3ncccc3C(C)C)c3ncccc23)C(=O)O)c(F)c1)C(F)(F)F` [Example 305] showed an EC50 of 10.2 nM.
The same measure, in the same setting: under `CC[C@@H](Nc1cc(F)c(C(=O)N[C@@H](Cc2ccc(-c3nc(C)c4ccc(F)cc4n3)c3ncccc23)C(=O)O)c(F)c1)C(F)(F)F` [Example 258] stands 3.6 nM; under `O=C(N[C@@H](Cc1ccc(-c2nccc(C(F)(F)F)n2)c2ncccc12)C(=O)O)c1c(F)cc(N2CCOC[C@@H]2C(F)(F)F)cc1F` [Example 189], 15.1 nM.
For `O=C(N[C@@H](Cc1ccc(-c2c(Cl)cc(F)cc2Cl)c2ncccc12)C(=O)O)c1c(F)cc(N[C@H](c2ccccc2)C(F)(F)F)cc1F` [Example 282], the EC50 worked out at 26.8 nM.
Take `Cc1nc(-c2ccc(C[C@H](NC(=O)c3c(F)cc(N4CCOC[C@@H]4C(F)(F)F)cc3F)C(=O)O)c3cccnc23)ncc1F` [Example 301]: it took 9.4 nM to reach a half-maximal effect (EC50).
The compound `CC1(O)CCN(c2cc(F)c(C(=O)N[C@@H](Cc3ccc(-c4ccc(C#N)cc4Cl)c4ncccc34)C(=O)O)c(F)c2)CC1` [Example 216] had an EC50 of 31 nM. This EC50 lies about 3.3-fold higher than the previous one.

These data come from US11116760B2 (Gilead Sciences, Inc., priority 2018, dated 2021).
